Experimental data taken from ChEMBL document CHEMBL1201862, “PubChem BioAssay data set” (2004).
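Exposure lasted 48 hours, with cells grown in 96-well plates and compounds tested at five concentrations. Abbreviation: GI50, concentration required for 50% inhibition of growth.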 Calls of active or inactive are those of the source. Cut-off read from the data, not from the text of the source: active = GI50 up to about 1.1 µM and inactive = higher.

How the values were obtained:
Experiment in all cases: NCI-60 cell line screen, 48 h
COLO 205 = tested on: COLO 205
TK-10 = tested on: TK-10
SNB-75 = tested on: SNB-75
SNB-19 = tested on: SNB-19
K562 = tested on: K562
CCRF-CEM = tested on: CCRF-CEM
OVCAR-8 = tested on: OVCAR-8
HT-29 = tested on: HT-29
PC-3 = tested on: PC-3
MDA-MB-231 = tested on: MDA-MB-231
OVCAR-4 = tested on: OVCAR-4
SR = tested on: SR
BT-549 = tested on: BT-549
SK-MEL-28 = tested on: SK-MEL-28
IGROV-1 = tested on: IGROV-1
A549 = tested on: A549
ACHN = tested on: ACHN
HCT-116 = tested on: HCT-116
MDA-N = tested on: MDA-N

SMILES	GI50 (COLO 205)	GI50 (TK-10)	GI50 (SNB-75)	GI50 (SNB-19)	GI50 (K562)	GI50 (CCRF-CEM)	GI50 (OVCAR-8)	GI50 (HT-29)	GI50 (PC-3)	GI50 (MDA-MB-231)	GI50 (OVCAR-4)	GI50 (SR)	GI50 (BT-549)	GI50 (SK-MEL-28)	GI50 (IGROV-1)	GI50 (A549)	GI50 (ACHN)	GI50 (HCT-116)	GI50 (MDA-N)
CCN(CC)Cc1cc(Nc2c3ccccc3nc3c4ccccc4n(C)c23)cc(CN(CC)CC)c1O	2.77 µM (inactive)	10.9 µM (inactive)	12 µM (inactive)	12.2 µM (inactive)	2.76 µM (inactive)	2.4 µM (inactive)	4.39 µM (inactive)	3.41 µM (inactive)	2.42 µM (inactive)	3.03 µM (inactive)	4.43 µM (inactive)	2.82 µM (inactive)	2 µM (inactive)	2.37 µM (inactive)	9.98 µM (inactive)	8.43 µM (inactive)	5.43 µM (inactive)	2.89 µM (inactive)	–
NC(=O)C(=CN1C(=O)CC(=O)NC1=S)C(N)=O	> 100 µM (inactive)	> 100 µM (inactive)	> 100 µM (inactive)	> 100 µM (inactive)	–	–	> 100 µM (inactive)	> 100 µM (inactive)	–	> 100 µM (inactive)	> 100 µM (inactive)	–	> 100 µM (inactive)	> 100 µM (inactive)	> 100 µM (inactive)	> 100 µM (inactive)	> 100 µM (inactive)	> 100 µM (inactive)	–
O=C(Cn1c2c(c3ccccc31)CCCC2)NC1CCCCC1	> 100 µM (inactive)	> 100 µM (inactive)	–	> 100 µM (inactive)	> 100 µM (inactive)	> 100 µM (inactive)	> 100 µM (inactive)	> 100 µM (inactive)	88.7 µM (inactive)	–	94.2 µM (inactive)	–	> 100 µM (inactive)	63 µM (inactive)	22.5 µM (inactive)	> 100 µM (inactive)	> 100 µM (inactive)	> 100 µM (inactive)	> 100 µM (inactive)
COC(=O)Cc1c([C@H]2[C@H](CC(=O)OC)c3ccccc3N2C(C)=O)[nH]c2ccccc12	67.1 µM (inactive)	> 100 µM (inactive)	> 100 µM (inactive)	> 100 µM (inactive)	50.8 µM (inactive)	67.5 µM (inactive)	> 100 µM (inactive)	> 100 µM (inactive)	80 µM (inactive)	> 100 µM (inactive)	–	–	67.6 µM (inactive)	> 100 µM (inactive)	34.4 µM (inactive)	97.7 µM (inactive)	> 100 µM (inactive)	> 100 µM (inactive)	> 100 µM (inactive)
CCc1c(CNC2=NCCN2)c(CC)c(CNC2=NCCN2)c(CC)c1CNC1=NCCN1	> 100 µM (inactive)	> 100 µM (inactive)	> 100 µM (inactive)	> 100 µM (inactive)	> 100 µM (inactive)	> 100 µM (inactive)	> 100 µM (inactive)	> 100 µM (inactive)	> 100 µM (inactive)	–	> 100 µM (inactive)	> 100 µM (inactive)	> 100 µM (inactive)	> 100 µM (inactive)	> 100 µM (inactive)	> 100 µM (inactive)	> 100 µM (inactive)	> 100 µM (inactive)	> 100 µM (inactive)
Cc1cccc2c(N)c3cccc(C(=O)NCCN(C)C)c3nc12	0.0315 µM (active)	0.214 µM (active)	0.074 µM (active)	–	0.0162 µM (active)	< 0.01 µM (active)	0.0695 µM (active)	< 0.0236 µM (active)	0.0643 µM (active)	0.0538 µM (active)	0.09 µM (active)	< 0.01 µM (active)	1.41 µM (inactive)	0.193 µM (active)	< 0.0291 µM (active)	< 0.0161 µM (active)	< 0.0163 µM (active)	0.0236 µM (active)	–
CC(=O)N1CCc2c([nH]c3ccc(Br)cc23)C1c1ccccc1 (stereo unspecified)	> 10 µM (inactive)	> 10 µM (inactive)	7.96 µM (inactive)	> 10 µM (inactive)	0.752 µM (active)	1.47 µM (inactive)	> 5.07 µM (inactive)	5.37 µM (inactive)	1.12 µM (active)	–	> 10 µM (inactive)	0.733 µM (active)	7.03 µM (inactive)	> 10 µM (inactive)	> 7.33 µM (inactive)	0.912 µM (active)	> 7.36 µM (inactive)	1.11 µM (active)	2.61 µM (inactive)
COc1ccc(/C=C2\CCC(CNc3ccc(Br)cc3)C2=O)cc1 (stereo unspecified)	81.8 µM (inactive)	57.5 µM (inactive)	–	> 100 µM (inactive)	20 µM (inactive)	31.8 µM (inactive)	> 100 µM (inactive)	> 100 µM (inactive)	> 100 µM (inactive)	53.3 µM (inactive)	> 100 µM (inactive)	24.2 µM (inactive)	88.7 µM (inactive)	> 100 µM (inactive)	> 100 µM (inactive)	93.8 µM (inactive)	15.3 µM (inactive)	–	–
COc1cc(Nc2nc3cc(C(F)(F)F)ccc3nc2C(=O)O)cc(OC)c1OC	45.5 µM (inactive)	51.3 µM (inactive)	10.6 µM (inactive)	41.5 µM (inactive)	–	29.4 µM (inactive)	43.8 µM (inactive)	49.7 µM (inactive)	–	21.8 µM (inactive)	> 100 µM (inactive)	–	34.9 µM (inactive)	69.2 µM (inactive)	66.1 µM (inactive)	64.4 µM (inactive)	65.6 µM (inactive)	32.7 µM (inactive)	33.3 µM (inactive)
c1ccc2c(c1)ccn1ccc3c4ccccc4nc-3c21	0.222 µM (active)	1.16 µM (inactive)	0.647 µM (active)	0.776 µM (active)	0.194 µM (active)	0.26 µM (active)	0.182 µM (active)	0.11 µM (active)	0.384 µM (active)	0.322 µM (active)	0.332 µM (active)	< 0.01 µM (active)	1.43 µM (inactive)	0.368 µM (active)	0.394 µM (active)	0.32 µM (active)	0.228 µM (active)	0.0935 µM (active)	–
COCC(/N=C\N1CCCc2ccccc2[C@@H]1CCCCl)C(C)(C)C (stereo partly specified)	0.586 µM (active)	9.93 µM (inactive)	3.01 µM (inactive)	18.7 µM (inactive)	0.512 µM (active)	0.444 µM (active)	15.5 µM (inactive)	1.54 µM (inactive)	0.482 µM (active)	3.49 µM (inactive)	1.97 µM (inactive)	2.05 µM (inactive)	–	> 100 µM (inactive)	0.353 µM (active)	13.4 µM (inactive)	16.9 µM (inactive)	1.23 µM (inactive)	33.8 µM (inactive)
COc1cc(Nc2c(C#N)[n+]([O-])c3ccccc3[n+]2[O-])cc(OC)c1OC	12.6 µM (inactive)	> 100 µM (inactive)	> 100 µM (inactive)	28.6 µM (inactive)	39.1 µM (inactive)	27 µM (inactive)	31.9 µM (inactive)	29.9 µM (inactive)	33.3 µM (inactive)	–	> 100 µM (inactive)	–	97.5 µM (inactive)	19 µM (inactive)	–	43.8 µM (inactive)	56.8 µM (inactive)	16.4 µM (inactive)	–
